Experimental data: ChEMBL document CHEMBL3885881, “DrugMatrix”

Organism: Rattus norvegicus
Assay: DrugMatrix - Regimen: Daily Repeat
Format: toxicity, organism-based, Sprague-Dawley
Parameters: regimen Daily Repeat, gender Male, age 6-8 weeks
Conditions: in vivo, po, route oral GAVAGE, vehicle 100 % WATER; for ABSOLUTE BASOPHIL / ABSOLUTE EOSINOPHIL / ABSOLUTE LYMPHOCYTE / ABSOLUTE MONOCYTE / ABSOLUTE SEGMENTED NEUTROPHIL / BASOPHIL / EOSINOPHIL / ERYTHROCYTE COUNT / HEMATOCRIT / HEMOGLOBIN / LEUKOCYTE COUNT / LYMPHOCYTE / MEAN CORPUSCULAR HEMOGLOBIN / MEAN CORPUSCULAR HEMOGLOBIN CONCENTRATION / MEAN CORPUSCULAR VOLUME / MONOCYTE / NEUTROPHIL / NUCLEATED RED BLOOD CELLS / PLATELET COUNT: tissue Blood; for ALANINE AMINOTRANSFERASE / ALBUMIN / ALKALINE PHOSPHATASE / ASPARTATE AMINOTRANSFERASE / BLOOD UREA NITROGEN / CARBON DIOXIDE / CHLORIDE / CHOLESTEROL / CREATINE PHOSPHOKINASE / CREATININE / GLUCOSE / LACTATE DEHYDROGENASE / LIPASE / PHOSPHORUS / POTASSIUM / SODIUM / TOTAL BILIRUBIN / TOTAL PROTEIN / URIC ACID: tissue Plasma
[1] = 0 mg/kg, 72 h, dose level Control, time 3 day
[2] = 0 mg/kg, 120 h, dose level Control, time 5 day
[3] = 120 mg/kg, 72 h, dose level Low, time 3 day

Cc1onc(-c2ccccc2Cl)c1C(=O)N[C@@H]1C(=O)N2[C@@H]1SC(C)(C)[C@@H]2C(=O)O [CLOXACILLIN]
ABSOLUTE BASOPHIL [1]: 0 CELLS/uL | ABSOLUTE EOSINOPHIL [1]: 40 CELLS/uL | ABSOLUTE LYMPHOCYTE [1]: 13599.5 CELLS/uL | ABSOLUTE MONOCYTE [1]: 239.33 CELLS/uL | ABSOLUTE SEGMENTED NEUTROPHIL [1]: 1021.17 CELLS/uL | BASOPHIL [1]: 0% | EOSINOPHIL [1]: 0.33% | ERYTHROCYTE COUNT [1]: 5.71 x10E6/uL | HEMATOCRIT [1]: 36.35% | HEMOGLOBIN [1]: 14.05 G/DL | LEUKOCYTE COUNT [1]: 14.9 x10E3/uL | LYMPHOCYTE [1]: 91% | MEAN CORPUSCULAR HEMOGLOBIN [1]: 24.62 pg | MEAN CORPUSCULAR HEMOGLOBIN CONCENTRATION [1]: 38.65 G/DL | MEAN CORPUSCULAR VOLUME [1]: 63.7 fL | MONOCYTE [1]: 1.5% | NEUTROPHIL [1]: 7.17% | NUCLEATED RED BLOOD CELLS [1]: 0.33 /100WBC | PLATELET COUNT [1]: 1225.5 x10E3/uL | ALANINE AMINOTRANSFERASE [1]: 48.5 u/L | ALBUMIN [1]: 4.18 G/DL | ALKALINE PHOSPHATASE [1]: 390.83 u/L | ASPARTATE AMINOTRANSFERASE [1]: 89 u/L | BLOOD UREA NITROGEN [1]: 14.83 mg/dL | CARBON DIOXIDE [1]: 24.83 mmol/L | CHLORIDE [1]: 100.83 MEQ/L | CHOLESTEROL [1]: 72.5 mg/dL | CREATINE PHOSPHOKINASE [1]: 503 u/L | CREATININE [1]: 0.2 mg/dL | GLUCOSE [1]: 163 mg/dL | LACTATE DEHYDROGENASE [1]: 316.83 u/L | LIPASE [1]: 9.83 u/L | PHOSPHORUS [1]: 11.57 mg/dL | POTASSIUM [1]: 6.16 MEQ/L | SODIUM [1]: 142.62 MEQ/L | TOTAL BILIRUBIN [1]: 0.2 mg/dL | TOTAL PROTEIN [1]: 5.8 G/DL | URIC ACID [1]: 1.65 mg/dL | ABSOLUTE BASOPHIL [2]: 0 CELLS/uL | ABSOLUTE EOSINOPHIL [2]: 21 CELLS/uL | ABSOLUTE LYMPHOCYTE [2]: 14288.5 CELLS/uL | ABSOLUTE MONOCYTE [2]: 205.33 CELLS/uL | ABSOLUTE SEGMENTED NEUTROPHIL [2]: 968.5 CELLS/uL | BASOPHIL [2]: 0% | EOSINOPHIL [2]: 0.17% | ERYTHROCYTE COUNT [2]: 5.83 x10E6/uL | HEMATOCRIT [2]: 36.53% | HEMOGLOBIN [2]: 14.4 G/DL | LEUKOCYTE COUNT [2]: 15.48 x10E3/uL | LYMPHOCYTE [2]: 92% | MEAN CORPUSCULAR HEMOGLOBIN [2]: 24.72 pg | MEAN CORPUSCULAR HEMOGLOBIN CONCENTRATION [2]: 39.43 G/DL | MEAN CORPUSCULAR VOLUME [2]: 62.68 fL | MONOCYTE [2]: 1.33% | NEUTROPHIL [2]: 6.5% | NUCLEATED RED BLOOD CELLS [2]: 0.17 /100WBC | PLATELET COUNT [2]: 1280.5 x10E3/uL | ALANINE AMINOTRANSFERASE [2]: 50 u/L | ALBUMIN [2]: 4.28 G/DL | ALKALINE PHOSPHATASE [2]: 380.17 u/L | ASPARTATE AMINOTRANSFERASE [2]: 82.67 u/L | BLOOD UREA NITROGEN [2]: 15.33 mg/dL | CARBON DIOXIDE [2]: 27.17 mmol/L | CHLORIDE [2]: 100.33 MEQ/L | CHOLESTEROL [2]: 60.67 mg/dL | CREATINE PHOSPHOKINASE [2]: 441.5 u/L | CREATININE [2]: 0.16 mg/dL | GLUCOSE [2]: 146 mg/dL | LACTATE DEHYDROGENASE [2]: 189.33 u/L | LIPASE [2]: 9.17 u/L | PHOSPHORUS [2]: 11.67 mg/dL | POTASSIUM [2]: 6.86 MEQ/L | SODIUM [2]: 142.33 MEQ/L | TOTAL BILIRUBIN [2]: 0.2 mg/dL | TOTAL PROTEIN [2]: 6.12 G/DL | URIC ACID [2]: 1.82 mg/dL | ABSOLUTE BASOPHIL [3]: 0 CELLS/uL | ABSOLUTE EOSINOPHIL [3]: 0 CELLS/uL | ABSOLUTE LYMPHOCYTE [3]: 13421.33 CELLS/uL | ABSOLUTE MONOCYTE [3]: 92.33 CELLS/uL | ABSOLUTE SEGMENTED NEUTROPHIL [3]: 1186.33 CELLS/uL | BASOPHIL [3]: 0% | EOSINOPHIL [3]: 0% | ERYTHROCYTE COUNT [3]: 5.89 x10E6/uL | HEMATOCRIT [3]: 36% | HEMOGLOBIN [3]: 13.83 G/DL | LEUKOCYTE COUNT [3]: 14.7 x10E3/uL | LYMPHOCYTE [3]: 90.67% | MEAN CORPUSCULAR HEMOGLOBIN [3]: 23.47 pg | MEAN CORPUSCULAR HEMOGLOBIN CONCENTRATION [3]: 38.4 G/DL | MEAN CORPUSCULAR VOLUME [3]: 61.07 fL | MONOCYTE [3]: 0.67% | NEUTROPHIL [3]: 8.67% | NUCLEATED RED BLOOD CELLS [3]: 0 /100WBC | PLATELET COUNT [3]: 1271.67 x10E3/uL | ALANINE AMINOTRANSFERASE [3]: 68 u/L | ALBUMIN [3]: 4.1 G/DL | ALKALINE PHOSPHATASE [3]: 359 u/L | ASPARTATE AMINOTRANSFERASE [3]: 111 u/L | BLOOD UREA NITROGEN [3]: 15.33 mg/dL | CARBON DIOXIDE [3]: 23 mmol/L | CHLORIDE [3]: 103 MEQ/L | CHOLESTEROL [3]: 79.33 mg/dL | CREATINE PHOSPHOKINASE [3]: 603.33 u/L | CREATININE [3]: 0.17 mg/dL | GLUCOSE [3]: 150.33 mg/dL | LACTATE DEHYDROGENASE [3]: 726 u/L | LIPASE [3]: 9 u/L | PHOSPHORUS [3]: 13.1 mg/dL | POTASSIUM [3]: 6.07 MEQ/L | SODIUM [3]: 143.5 MEQ/L | TOTAL BILIRUBIN [3]: 0.17 mg/dL | TOTAL PROTEIN [3]: 5.77 G/DL | URIC ACID [3]: 1.8 mg/dL
